{
  "source": "patent US7968588B2",
  "about": "“Injectable formulation of antibiotic and solution for intravenous administration thereof” (eRigen Pharmaceuticals, Inc., priority 2006, dated 2011)",
  "tested_on": "MRSA (strain ATCC 33591)",
  "assay": "In vivo efficacy study in a MRSA infection model in mice",
  "set-up": "species or system Staphylococcus aureus",
  "conditions": "for survival (%) at dosage 1.0 mg/kg: single i.v. dose 1.0 mg/kg one hour after i.v. MRSA inoculation; for survival (%) at dosage 3.0 mg/kg: single i.v. dose 3.0 mg/kg one hour after i.v. MRSA inoculation; for 50% effective dose: single i.v. dose, calculated from the survival rate at each dosage",
  "protocol": "Efficacy was compared between the present solution of WAP-8294A2 prepared in the manner shown in Example 4 and vancomycin for injection (5% dextrose solution) using an MRSA infection model in mice.\nThe 50% effective dose (mg/kg) was calculated from the survival rate at each dosage.",
  "note": "Starred links: 1 amine or outer side, 2 acyl side, 3 side chain; linkers in the order of their positions; H or OH if unused. Positions of bridges follow the written chain, without caps; N, C: chain ends. Non-standard residues stand in square brackets, D forms with d. Residues, ends and D or L forms follow the SMILES beside them. ξ: configuration not given here. ξAsn(3ξ-OH) = NC(=O)C(O)C(N)C(=O)O; X1 = CC(C)CCCC(CC(=O)[*:1])O[*:2]; NMeF = CN[CH](Cc1ccccc1)C(=O)O; NMeV = CN[CH](C(=O)O)C(C)C; Orn = NCCC[CH](N)C(=O)O",
  "data": [
    {"smiles": "CC(C)CCCC1CC(=O)NC(CO)C(=O)NC(C(O)C(N)=O)C(=O)NC(CO)C(=O)NCC(=O)N(C)C(Cc2ccccc2)C(=O)NC(CC(C)C)C(=O)NC(CCCN)C(=O)NC(CCC(=O)O)C(=O)NC(CC(N)=O)C(=O)NC(Cc2c[nH]c3ccccc23)C(=O)NC(CCCN)C(=O)N(C)C(C(C)C)C(=O)O1", "note": "(centres unmarked) [WAP-8294A2] (S[ξAsn(3ξ-OH)]SG[NMeF]L[Orn]ENW[Orn][NMeV]; linker N-C via X1; configuration not given here)", "values": [
      {"measurement": "survival (%) at dosage 0.01 mg/kg", "setting": "single i.v. dose 0.01 mg/kg one hour after i.v. MRSA inoculation, observed for a week", "result": 10, "unit": "%"},
      {"measurement": "survival (%) at dosage 0.03 mg/kg", "setting": "single i.v. dose 0.03 mg/kg one hour after i.v. MRSA inoculation, observed for a week", "result": 30, "unit": "%"},
      {"measurement": "survival (%) at dosage 0.1 mg/kg", "setting": "single i.v. dose 0.1 mg/kg one hour after i.v. MRSA inoculation, observed for a week", "result": 60, "unit": "%"},
      {"measurement": "survival (%) at dosage 0.3 mg/kg", "setting": "single i.v. dose 0.3 mg/kg one hour after i.v. MRSA inoculation, observed for a week", "result": 100, "unit": "%"},
      {"measurement": "survival (%) at dosage 1.0 mg/kg", "setting": "observed for a week", "result": 100, "unit": "%"},
      {"measurement": "survival (%) at dosage 3.0 mg/kg", "setting": "observed for a week", "result": 100, "unit": "%"},
      {"measurement": "50% effective dose", "result": 0.06, "unit": "mg/kg"}
    ]},
    {"smiles": "CN[C@H](CC(C)C)C(=O)N[C@H]1C(=O)N[C@@H](CC(N)=O)C(=O)N[C@H]2C(=O)N[C@H]3C(=O)N[C@H](C(=O)N[C@H](C(=O)O)c4cc(O)cc(O)c4-c4cc3ccc4O)[C@H](O)c3ccc(c(Cl)c3)Oc3cc2cc(c3O[C@@H]2O[C@H](CO)[C@@H](O)[C@H](O)[C@H]2O[C@H]2C[C@](C)(N)[C@H](O)[C@H](C)O2)Oc2ccc(cc2Cl)[C@H]1O", "note": "[vancomycin, reference compound]", "values": [
      {"measurement": "survival (%) at dosage 1.0 mg/kg", "setting": "observed for a week", "result": 0, "unit": "%"},
      {"measurement": "survival (%) at dosage 3.0 mg/kg", "setting": "observed for a week", "result": 30, "unit": "%"},
      {"measurement": "survival (%) at dosage 10 mg/kg", "setting": "single i.v. dose 10 mg/kg one hour after i.v. MRSA inoculation, observed for a week", "result": 100, "unit": "%"},
      {"measurement": "50% effective dose", "result": 3.12, "unit": "mg/kg"}
    ]}
  ]
}
